# Results as given in article PMC11600510 (Journal of Chemical Information and Modeling, 2024).
# Experiments:
# [1] = molecular target: T1, Spike RBD/ACE2 (19–615) interaction (Severe acute respiratory syndrome coronavirus 2, UniProt P0DTC2); assay: cell-based; format: cell-based, SARS-CoV-2
# T1 construct: S protein RBD (aa residues 319–541) of SARS-CoV-2; expressed in transfected cells; host or cells: HEK293T
# E. coli WP2 uvrA strain = assay: Microbial mutagenicity assay (Ames test); conditions: positive control
# Vero E6 cells = assay: MTT toxicity assay in Vero E6 cells; format: cell-based; conditions: 48 h
# Procedure: Chemical compounds were dissolved and serially diluted in DMSO. Their cytotoxicity was assessed using an MTT assay. Briefly, HEK293T, SH-SY5Y or Vero E6 cells were cultured in 96-well plates (4 × 10^4 cells/well) at 37 °C in a 5% CO2 atmosphere. Cells were treated for 48 h with varying concentrations of the compounds (100–0.1 μM) or solvent. […] Treated cells were incubated for 4 h with […] MTT (Applichem). After incubation, the MTT-containing medium was removed and formazan crystals were dissolved in DMSO. The optical density (OD) of formazan solution at 570 and 630 nm was measured in a SPARK plate reader (Tecan).
# SARS-CoV-2 pseudovirus = assay: microbe, parasite or virus in culture; format: cell-based; conditions: Severe acute respiratory syndrome-related coronavirus, SH-SY5Y, read-out: IC50, inhibition of pseudovirus cell entry
# SARS-CoV-2 [2] = assay: microbe, parasite or virus in culture; format: cell-based
# SARS-CoV-2 [3] = format: cell-based
# [4] = HEK-293T, 48 h, read-out: suppression of Spike RBD/ACE2 (19–615) interaction
smiles,measurement,setting,value
"Oc1cccc2c1ncn2Cc1ccc(-c2ccccc2)cc1 [CKP-30, 1-([1,1′-Biphenyl]-4-ylmethyl)-1H-benzo[d]imidazol-4-ol]",activity on Spike RBD/ACE2 (19–615) interaction (in words),[1],"none of the 4-hydroxy congeners of 28 and 29, compounds 31 (CKP-26) and 32 (CKP-30) maintained inhibitory activity"
same,melting point,,258 to 259 °C
"Oc1ccc(Cn2cnc3ccccc32)cc1O [CKP-35, 4-((1H-Benzo[d]imidazol-1-yl)methyl)benzene-1,2-diol]",melting point,,188 to 190 °C (dec.)
"c1ccc2cc(CCn3cnc4ccccc43)ccc2c1 [CKP-46, 1-(2-(Naphthalen-2-yl)ethyl)-1H-benzo[d]imidazole]",activity on Spike RBD/ACE2 (19–615) interaction (in words),[1],activity was retained
same,inhibition at 1 µM,[1]; [4],20%
"COc1cccc2c1ncn2Cc1ccc2cccnc2c1 [CKP-44, 7-((4-Methoxy-1H-benzo[d]imidazol-1-yl)methyl)quinoline]",activity on Spike RBD/ACE2 (19–615) interaction (in words),[1],did not exhibit any effect
same,melting point,,161 to 162 °C
"O=C(c1ccc(NC(=O)C(c2ccccc2)c2ccccc2)cc1)c1ccc(C(=O)O)c(C(=O)O)c1 [compound 6048589, 4-{4-[(diphenylacetyl)amino]benzoyl}phthalic acid]",effect on Spike RBD/ACE2 (19–615) interaction,[1],suppressed the interaction
"COc1cccc2c1[n+](C/C=C/c1ccc([N+](=O)[O-])cc1)cn2Cc1ccc2ccccc2c1.[Br-] [CKP-42, (E)-4-Methoxy-1-(naphthalen-2-ylmethyl)-3-(3-(4-nitrophenyl)allyl)-1H-benzo[d]imidazol-3-ium Bromide]",activity on Spike RBD/ACE2 (19–615) interaction (in words),[1],active
same,inhibition at 10 µM,[1]; [4],74%
same,melting point,,227 to 228 °C
"Nc1nc(-c2ccccc2)c(-c2ccc(-c3ccccc3)cc2)s1 [compound 6954709, 5-(4-biphenylyl)-4-phenyl-1,3-thiazol-2-amine]",effect on Spike RBD/ACE2 (19–615) interaction,[1],suppressed the interaction
"COc1ccc(-c2ccccc2)cc1NCc1ccc2c(c1)OCO2 [compound 5465521, (1,3-benzodioxol-5-ylmethyl)(4-methoxy-3-biphenylyl)amine]",concentration-dependent suppression of Spike RBD/ACE2 (19–615) interaction,[1],suppressed Spike RBD/ACE2 (19–615) interaction in a concentration-dependent manner
same,effect on Spike RBD/ACE2 (19–615) interaction,[1],suppressed the interaction
"COc1ccc(Cn2cnc3ccccc32)cc1OC [CKP-24, 1-(3,4-Dimethoxybenzyl)-1H-benzo[d]imidazole]",melting point,,131 to 132 °C
"Oc1cccc2c1ncn2Cc1ccc2ccccc2c1 [CKP-26, 1-(Naphthalen-2-ylmethyl)-1H-benzo[d]imidazol-4-ol]",activity on Spike RBD/ACE2 (19–615) interaction (in words),[1],"none of the 4-hydroxy congeners of 28 and 29, compounds 31 (CKP-26) and 32 (CKP-30) maintained inhibitory activity"
"O=C(O)c1ccccc1C(=O)Nc1ccc(Oc2ccc3ccccc3c2)cc1 [compound 6052953, 2-({[4-(2-naphthyloxy)phenyl]amino}carbonyl)benzoic acid]",concentration-dependent suppression of Spike RBD/ACE2 (19–615) interaction,[1],suppressed Spike RBD/ACE2 (19–615) interaction in a concentration-dependent manner
same,effect on Spike RBD/ACE2 (19–615) interaction,[1],suppressed the interaction
COc1ccc(Cn2c[n+](C/C=C/c3ccc([N+](=O)[O-])cc3)c3ccccc32)cc1OC.[Br-],melting point,,146 to 148 °C (dec.)
"COS(C)(=O)=O [methyl methanesulfonate, reference compound]",mean revertants,"E. coli WP2 uvrA strain; 2.5 μL/plate, –S9",>300
"Clc1ccc(/C=C/C[n+]2cn(Cc3ccc4ccccc4c3)c3ccccc32)cc1.[Br-] [CKP-32, (E)-3-(3-(4-Chlorophenyl)allyl)-1-(naphthalen-2-ylmethyl)-1H-benzo[d]imidazol-3-ium Bromide]",inhibition at 10 µM,[1]; [4],70%
same,toxicity against Vero E6 cells,Vero E6 cells,toxic
same,melting point,,166 to 167 °C
"O=c1c(Oc2ccc(-c3ccccc3)cc2)coc2cc(O)ccc12 [compound 6659989, 3-(4-biphenylyloxy)-7-hydroxy-4H-chromen-4-one]",concentration-dependent suppression of Spike RBD/ACE2 (19–615) interaction,[1],suppressed Spike RBD/ACE2 (19–615) interaction in a concentration-dependent manner
same,effect on Spike RBD/ACE2 (19–615) interaction,[1],suppressed the interaction
same,IC50,SARS-CoV-2 pseudovirus,3.2 ± 0.2 µM
COc1cccc2c1[n+](C/C=C/c1ccc(Cl)cc1)cn2Cc1ccc(-c2ccccc2)cc1.[Br-],melting point,,205 to 206 °C
"O=[N+]([O-])c1cccc2c1ncn2Cc1ccc2ccccc2c1 [CKP-20, 1-(Naphthalen-2-ylmethyl)-4-nitro-1H-benzo[d]imidazole]",activity on Spike RBD/ACE2 (19–615) interaction (in words),[1],showed activity
same,inhibition at 50 µM,[1]; [4],51%
"O=C1CC(c2ccc3ccccc3c2)c2ccc3ccccc3c2N1 (stereo not shown) [compound 5979742, 4-(2-naphthyl)-3,4-dihydrobenzo[h]quinolin-2(1H)-one]",effect on Spike RBD/ACE2 (19–615) interaction,[1],suppressed the interaction
"O=[N+]([O-])c1cccc2c1ncn2Cc1ccc2cccnc2c1 [CKP-48, 7-((4-Nitro-1H-benzo[d]imidazol-1-yl)methyl)quinoline]",activity on Spike RBD/ACE2 (19–615) interaction (in words),[1],showed activity
same,inhibition at 50 µM,[1]; [4],36%
"COc1cccc2c1[n+](C/C=C/c1ccc([N+](=O)[O-])cc1)cn2Cc1ccc(-c2ccccc2)cc1.[Br-] [CKP-40, (E)-1-([1,1′-Biphenyl]-4-ylmethyl)-4-methoxy-3-(3-(4-nitrophenyl)allyl)-1H-benzo[d]imidazol-3-ium Bromide]",activity on Spike RBD/ACE2 (19–615) interaction (in words),[1],active
same,inhibition at 25 µM,[1]; [4],14%
same,effect on the cytopathic effect of SARS-CoV-2 (in words),SARS-CoV-2 [2],not protective against SARS-CoV-2
same,melting point,,203 to 204 °C
"Cc1ccc[n+](CC(=O)c2ccc3c(c2)Cc2ccccc2-3)c1C.[Br-] [compound 5315079, 1-[2-(9H-fluoren-2-yl)-2-oxoethyl]-2,3-dimethylpyridinium bromide]",concentration-dependent suppression of Spike RBD/ACE2 (19–615) interaction,[1],suppressed Spike RBD/ACE2 (19–615) interaction in a concentration-dependent manner
same,effect on Spike RBD/ACE2 (19–615) interaction,[1],suppressed the interaction
"O=C(O)c1ccc2c(c1)C(=O)N(c1ccc(-c3nnc(-c4ccccc4)o3)cc1)C2=O [compound 5733393, 1,3-dioxo-2-[4-(5-phenyl-1,3,4-oxadiazol-2-yl)phenyl]-5-isoindolinecarboxylic acid]",effect on Spike RBD/ACE2 (19–615) interaction,[1],suppressed the interaction
"O=C(C=Cc1ccc(NC(=O)c2ccccc2-c2ccccc2C(=O)O)cc1)c1ccccc1 [compound 5755483, 2'-({[4-(3-oxo-3-phenyl-1-propen-1-yl)phenyl]amino}carbonyl)-2-biphenylcarboxylic acid]",effect on Spike RBD/ACE2 (19–615) interaction,[1],suppressed the interaction
"Nc1ccc2cc3ccccc3cc2c1 [2-aminoanthracene, reference compound]",mean revertants,"E. coli WP2 uvrA strain; 10 μg/plate, +S9",>300
O=[N+]([O-])c1ccc(/C=C/C[n+]2cn(Cc3ccc4ccccc4c3)c3ccccc32)cc1.[Br-],melting point,,189 to 191 °C
"O=C(c1ccc(-c2ccccc2)cc1)n1cnc2ccccc21 [compound 5260662, 1-(4-biphenylylcarbonyl)-1H-benzimidazole]",concentration-dependent suppression of Spike RBD/ACE2 (19–615) interaction,[1],suppressed Spike RBD/ACE2 (19–615) interaction in a concentration-dependent manner
same,effect on Spike RBD/ACE2 (19–615) interaction,[1],suppressed the interaction
O=[N+]([O-])c1ccc(/C=C/C[n+]2cn(Cc3ccc(-c4ccccc4)cc3)c3ccccc32)cc1.[Br-],melting point,,236 to 238 °C (dec.)
"c1cnc2cc(Cn3cnc4ccccc43)ccc2c1 [CKP-36, 7-((1H-Benzo[d]imidazol-1-yl)methyl)quinoline]",melting point,,166 to 168 °C (dec.)
"c1ccc2cc(Cn3cnc4ccccc43)ccc2c1 [CKP-22, 1-(Naphthalen-2-ylmethyl)-1H-benzo[d]imidazole]",IC50,[1],55 µM
same,concentration-dependent suppression of Spike RBD/ACE2 (19–615) interaction,[1],suppressed Spike RBD/ACE2 (19–615) interaction in a concentration-dependent manner
same,effect on Spike RBD/ACE2 (19–615) interaction,[1],suppressed the interaction
same,inhibition at 50 µM,[1]; [4],81%
same,IC50,SARS-CoV-2 pseudovirus,49 ± 2.5 µM
same,prevention of infection from the original SARS-CoV-2 in vitro,SARS-CoV-2 [2],strongly prevented infection
same,reduction of the cytopathic effect (CPE) of the virus,SARS-CoV-2 [2],approximately 90%
same,reduction of SARS-CoV-2 levels (viral load) in cell culture supernatant,SARS-CoV-2 [3],68%
same,melting point,,139 to 140 °C
"COc1cccc2c1ncn2Cc1ccc(-c2ccccc2)cc1 [CKP-27, 1-([1,1′-Biphenyl]-4-ylmethyl)-4-methoxy-1H-benzo[d]imidazole]",inhibition at 25 µM,[1]; [4],72%
same,effect on the cytopathic effect of SARS-CoV-2 (in words),SARS-CoV-2 [2],consistently reduced the cytopathic effect
same,effect on viral load in the cell culture supernatant (in words),SARS-CoV-2 [3],reduced the viral load
same,melting point,,150 to 151 °C
"Nc1cccc2c1ncn2Cc1ccc2cccnc2c1 [CKP-49, 1-(Quinolin-7-ylmethyl)-1H-benzo[d]imidazol-4-amine]",inhibition at 50 µM,[1]; [4],30%
same,effect on the cytopathic effect of SARS-CoV-2 (in words),SARS-CoV-2 [2],consistently reduced the cytopathic effect
same,effect on viral load in the cell culture supernatant (in words),SARS-CoV-2 [3],reduced the viral load
"c1ccc(-c2ccc(Cn3cnc4ccccc43)cc2)cc1 [CKP-23, 1-([1,1′-Biphenyl]-4-ylmethyl)-1H-benzo[d]imidazole]",melting point,,184 to 186 °C
COc1cccc2c1[n+](C/C=C/c1ccc(Cl)cc1)cn2Cc1ccc2ccccc2c1.[Br-],melting point,,228 to 229 °C
